Measurements from US7592457B2 (Korea Research Institute of Chemical Technology, priority 2004, dated 2009).

Columns and labels:
[1] = target: T1, human serotonin 5-HT6 receptor (Homo sapiens, UniProt P50406); assay: [3H]LSD binding at cloned 5-HT6 receptors; conditions: for IC50: [3H]LSD 1.87 nM, cloned receptor membranes, 37° C., 60 min, read-out: IC50; for 5-HT6 affinity compared with known selective antagonists: in words; for inhibition at 10 µM: read-out: Binding affinity (Inhibition rate % at 10 μM) 5HT6
T1 construct: made in house; host or cells: Sf21 insect cells (pBacPAK8 baculovirus vector)
T1 sequence (P50406 whole entry): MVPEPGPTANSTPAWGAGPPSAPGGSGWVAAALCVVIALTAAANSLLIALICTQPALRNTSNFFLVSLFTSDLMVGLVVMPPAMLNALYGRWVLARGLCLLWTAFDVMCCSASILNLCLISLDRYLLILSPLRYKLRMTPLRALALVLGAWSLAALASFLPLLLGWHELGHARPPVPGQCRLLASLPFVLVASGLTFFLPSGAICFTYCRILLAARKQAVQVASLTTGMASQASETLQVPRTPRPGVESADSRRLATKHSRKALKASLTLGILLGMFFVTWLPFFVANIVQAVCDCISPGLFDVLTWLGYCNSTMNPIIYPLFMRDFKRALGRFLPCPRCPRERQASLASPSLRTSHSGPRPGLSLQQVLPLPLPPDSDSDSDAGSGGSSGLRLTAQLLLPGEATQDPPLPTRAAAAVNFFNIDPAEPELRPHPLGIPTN

[2] = target: T2, hD2L receptor (Homo sapiens, UniProt P14416); assay: Radioligand binding, dopamine D2 ([3H]spiperone); conditions: read-out: Binding affinity (Inhibition rate % at 10 μM) D2
T2 construct: purchased BioSignal Packard Inc., Montreal, Canada
T2 sequence (P14416 whole entry): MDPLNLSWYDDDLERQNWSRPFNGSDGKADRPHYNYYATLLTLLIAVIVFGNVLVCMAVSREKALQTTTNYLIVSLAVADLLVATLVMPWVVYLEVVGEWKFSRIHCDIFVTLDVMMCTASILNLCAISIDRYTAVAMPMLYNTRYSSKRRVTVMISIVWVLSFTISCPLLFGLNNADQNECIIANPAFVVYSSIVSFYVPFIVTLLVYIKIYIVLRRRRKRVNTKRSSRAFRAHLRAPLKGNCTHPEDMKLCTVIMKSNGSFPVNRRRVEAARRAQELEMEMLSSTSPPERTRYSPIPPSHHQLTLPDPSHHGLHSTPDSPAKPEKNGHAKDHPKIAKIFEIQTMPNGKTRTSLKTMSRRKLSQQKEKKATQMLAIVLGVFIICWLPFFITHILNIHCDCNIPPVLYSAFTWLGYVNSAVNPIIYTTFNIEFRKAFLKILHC

[3] = target: T3, hD3 receptor (Homo sapiens, UniProt P35462); assay: Radioligand binding, dopamine D3 ([3H]spiperone); conditions: read-out: Binding affinity (Inhibition rate % at 10 μM) D3
T3 construct: purchased BioSignal Packard Inc., Montreal, Canada
T3 sequence (P35462 whole entry): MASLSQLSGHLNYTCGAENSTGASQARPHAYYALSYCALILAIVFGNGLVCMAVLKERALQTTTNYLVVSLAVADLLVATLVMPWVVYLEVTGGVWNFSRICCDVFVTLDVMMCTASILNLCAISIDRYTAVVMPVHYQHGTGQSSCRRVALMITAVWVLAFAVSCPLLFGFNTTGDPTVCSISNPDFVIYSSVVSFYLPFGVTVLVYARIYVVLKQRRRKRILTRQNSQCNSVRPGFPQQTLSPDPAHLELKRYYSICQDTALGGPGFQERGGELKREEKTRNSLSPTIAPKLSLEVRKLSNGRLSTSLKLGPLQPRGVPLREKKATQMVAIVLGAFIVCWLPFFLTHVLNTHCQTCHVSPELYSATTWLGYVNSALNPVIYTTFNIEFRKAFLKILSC

[4] = target: T4, hD4.2 receptor (Homo sapiens, UniProt P21917, DEL265-296); assay: Radioligand binding, dopamine D4 ([3H]YM-09151-2); conditions: read-out: Binding affinity (Inhibition rate % at 10 μM) D4
T4 construct: purchased BioSignal Packard Inc., Montreal, Canada
T4 sequence (P21917 with tags, fused parts or gaps DEL265-296): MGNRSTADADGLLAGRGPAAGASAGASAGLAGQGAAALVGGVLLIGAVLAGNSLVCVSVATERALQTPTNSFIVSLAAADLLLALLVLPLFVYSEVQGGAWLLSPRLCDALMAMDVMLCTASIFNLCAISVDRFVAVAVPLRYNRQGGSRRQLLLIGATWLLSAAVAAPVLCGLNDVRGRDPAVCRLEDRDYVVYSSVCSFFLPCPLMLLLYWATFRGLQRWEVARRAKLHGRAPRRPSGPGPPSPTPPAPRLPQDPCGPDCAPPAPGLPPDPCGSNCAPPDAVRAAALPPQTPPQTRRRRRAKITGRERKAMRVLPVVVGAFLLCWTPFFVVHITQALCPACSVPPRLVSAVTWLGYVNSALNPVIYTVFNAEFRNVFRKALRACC

[5] = test system: methamphetamine-induced hyperactivity and stereotypy; assay: Methamphetamine-induced hyperactivity and stereotypy in rats; assay type: in vivo, rat; conditions: 50 mg/kg, i.p., methamphetamine 2 mg/kg
Protocol: On the day of testing, rats (200-250 g) were put into a transparent polycarbonate cages located in the activity chamber, and adapted for 30 minutes. For a methamphetamine-induced activity, vehicle or compounds according to the present invention was injected (i.p.) 30 minutes before the injection of methamphetamine (2 mg/kg, i.p.). After systemic injection of methamphetamine, total movement distance traveled or total stereotypy was measured over the 120-minutes period using an activity analyzer (TruScan, Coulbourn Instruments, USA).
The inhibitory effect of compounds (50 mg/kg, i.p.) of the present invention on methamphetamine (2 mg/kg, i.p.)-induced hyperactivity in rats is shown in FIGS. 2(a) and 2(b). The inhibitory effects of compounds (50 mg/kg, i.p.) of the present invention on methamphetamine (2 mg/kg, i.p.)-induced stereotypy is shown in FIGS. 3(a) and 3(b).

[6] = target: T5, 5-HT1a (Homo sapiens, UniProt P08908); assay: Radioligand binding, 5-HT1a ([3H]8-OH-DPAT); conditions: read-out: Binding affinity (Inhibition rate % at 10 μM) 5HT1a
T5 construct: purchased Euroscreen/BioSignal Packard Inc
T5 sequence (P08908 1-422): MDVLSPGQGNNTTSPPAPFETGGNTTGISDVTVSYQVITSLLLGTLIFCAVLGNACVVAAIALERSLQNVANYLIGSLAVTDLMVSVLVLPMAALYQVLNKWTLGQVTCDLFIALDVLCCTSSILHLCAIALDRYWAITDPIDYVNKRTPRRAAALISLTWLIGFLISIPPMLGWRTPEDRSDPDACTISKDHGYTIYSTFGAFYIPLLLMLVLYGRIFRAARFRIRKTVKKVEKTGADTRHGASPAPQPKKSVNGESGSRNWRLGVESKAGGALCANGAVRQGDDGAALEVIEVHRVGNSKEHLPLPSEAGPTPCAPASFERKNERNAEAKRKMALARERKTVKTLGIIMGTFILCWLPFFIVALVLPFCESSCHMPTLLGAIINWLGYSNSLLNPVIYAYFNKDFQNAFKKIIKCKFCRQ
Protocol: (§1) Radioligand bindings were performed according to the test method provided by the supplier of receptor membrane (Euroscreen/BioSignal Packard Inc.).

[7] = target: T6, 5-HT7 (Homo sapiens, UniProt P34969); assay: Radioligand binding, 5-HT7 ([3H]LSD); conditions: for inhibition at 10 µM: read-out: Binding affinity (Inhibition rate % at 10 μM) 5HT7
T6 construct: purchased Euroscreen/BioSignal Packard Inc
T6 sequence (P34969 whole entry): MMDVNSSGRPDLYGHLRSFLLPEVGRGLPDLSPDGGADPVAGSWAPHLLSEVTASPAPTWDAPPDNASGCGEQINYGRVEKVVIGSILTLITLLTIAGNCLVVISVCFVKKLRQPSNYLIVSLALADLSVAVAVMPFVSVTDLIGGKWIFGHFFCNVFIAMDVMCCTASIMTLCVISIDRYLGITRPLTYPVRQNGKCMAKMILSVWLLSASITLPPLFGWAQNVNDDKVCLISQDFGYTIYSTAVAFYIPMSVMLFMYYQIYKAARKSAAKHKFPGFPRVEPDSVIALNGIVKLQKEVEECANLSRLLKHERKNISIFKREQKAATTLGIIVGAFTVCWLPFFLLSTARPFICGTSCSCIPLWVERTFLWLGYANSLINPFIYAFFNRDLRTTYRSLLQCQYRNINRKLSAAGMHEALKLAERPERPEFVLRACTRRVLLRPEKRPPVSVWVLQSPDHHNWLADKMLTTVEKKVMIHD
Protocol: as §1

[8] = target: T7, 5-HT2a (Homo sapiens, UniProt P28223); assay: Radioligand binding, 5-HT2a ([3H]Ketanserin); conditions: read-out: Binding affinity (Inhibition rate % at 10 μM) 5HT2a
T7 construct: purchased Euroscreen/BioSignal Packard Inc
T7 sequence (P28223 whole entry): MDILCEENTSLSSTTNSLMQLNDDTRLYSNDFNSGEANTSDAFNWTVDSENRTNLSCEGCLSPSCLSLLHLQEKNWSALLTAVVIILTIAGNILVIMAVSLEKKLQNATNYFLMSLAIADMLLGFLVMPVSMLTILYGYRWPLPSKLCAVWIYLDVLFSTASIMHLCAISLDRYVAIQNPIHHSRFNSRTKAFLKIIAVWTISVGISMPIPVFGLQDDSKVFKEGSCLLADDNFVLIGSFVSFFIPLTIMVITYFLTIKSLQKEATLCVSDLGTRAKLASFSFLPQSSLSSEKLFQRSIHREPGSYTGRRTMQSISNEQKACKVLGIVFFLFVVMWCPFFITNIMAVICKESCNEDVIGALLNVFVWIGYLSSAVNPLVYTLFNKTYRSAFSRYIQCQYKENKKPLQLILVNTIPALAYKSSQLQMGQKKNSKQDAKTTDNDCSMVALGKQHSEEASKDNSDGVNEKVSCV
Protocol: as §1

[9] = target: T8, 5-HT2c (Homo sapiens, UniProt P28335); assay: Radioligand binding, 5-HT2c ([3H]Mesulergine); conditions: read-out: Binding affinity (Inhibition rate % at 10 μM) 5HT2c
T8 construct: purchased Euroscreen/BioSignal Packard Inc
T8 sequence (P28335 33-458): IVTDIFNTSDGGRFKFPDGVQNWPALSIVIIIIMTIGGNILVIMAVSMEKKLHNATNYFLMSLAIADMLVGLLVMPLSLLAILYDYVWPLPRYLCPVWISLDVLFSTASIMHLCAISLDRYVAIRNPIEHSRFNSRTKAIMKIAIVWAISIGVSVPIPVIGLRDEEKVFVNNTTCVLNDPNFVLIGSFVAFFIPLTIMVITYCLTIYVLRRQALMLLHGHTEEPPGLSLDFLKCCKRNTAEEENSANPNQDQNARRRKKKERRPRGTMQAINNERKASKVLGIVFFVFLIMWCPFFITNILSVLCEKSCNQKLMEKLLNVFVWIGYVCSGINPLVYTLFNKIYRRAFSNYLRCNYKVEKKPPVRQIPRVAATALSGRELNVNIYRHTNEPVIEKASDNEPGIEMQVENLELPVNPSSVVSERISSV
Protocol: as §1

[10] = target: T9, 5-HT6 receptors (Homo sapiens, UniProt P50406); assay: 5-HT-stimulated cAMP accumulation in HeLa cell transfected with human 5-HT6 receptor; assay type: cell-based; design: host or cells: HeLa; conditions: for Antagonist activity compared with methiothepin: 5-HT-stimulated cAMP accumulation; for Functional classification at 5-HT6 receptor: inhibition of 5-HT-stimulated cAMP accumulation
T9 sequence (P50406 whole entry): as the sequence (P50406 whole entry) above
Protocol: By a method (2000) disclosed by Rutledge et al. of MDS Pharma Service (Bothell, Wash., USA, MDSPS PT# 1037161), activity of adenylil cyclase in HeLa cell having transfected with human 5-HT6 receptor was measured. The assay mixture consisted of Hanks' balanced salt solution (HBSS, pH 7.4) containing: 1 mM MgCl2, 1 mM CaCl2, […] 1-methyl-3-isobutylxanthine. Incubation was started by addition of membrane suspension and compounds according to the present invention.

[11] = target: D1 (Homo sapiens, UniProt P21728); assay: Radioligand binding for selectivity, D1; conditions: read-out: Binding affinity (Inhibition rate % at 10 μM) D1
Sequence of D1 (P21728 whole entry): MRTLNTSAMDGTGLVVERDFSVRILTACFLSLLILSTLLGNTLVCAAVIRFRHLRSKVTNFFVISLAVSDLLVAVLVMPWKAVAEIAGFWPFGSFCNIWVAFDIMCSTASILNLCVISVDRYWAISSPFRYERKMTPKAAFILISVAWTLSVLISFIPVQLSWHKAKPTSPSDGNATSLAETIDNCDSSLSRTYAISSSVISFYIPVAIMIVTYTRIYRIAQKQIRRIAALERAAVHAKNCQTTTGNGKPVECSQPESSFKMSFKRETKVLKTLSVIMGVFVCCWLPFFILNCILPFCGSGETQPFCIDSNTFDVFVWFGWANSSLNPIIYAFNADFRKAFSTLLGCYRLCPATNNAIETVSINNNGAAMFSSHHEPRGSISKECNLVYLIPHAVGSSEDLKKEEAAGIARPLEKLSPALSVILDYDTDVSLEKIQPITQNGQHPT

[12] = target: T9, 5-HT6 receptors; conditions: literature; cited from earlier work
[13] = target: T9, 5-HT6 receptors; conditions: antagonist, literature; cited from earlier work
[14] = test system: rat maximal electroseizure threshold; conditions: literature, cited from earlier work
[15] = test system: rats; conditions: literature; cited from earlier work
[16] = test system: rats; conditions: literature; cited from earlier work; remark: listed apart in the source
[17] = test system: extracellular glutamate levels; conditions: frontal cortex and dorsal hippocampus, literature; cited from earlier work
[18] = cited from earlier work
[19] = test system: rats; conditions: water maze, literature; cited from earlier work

SMILES | melting point | IC50 [1] | 5-HT6 affinity compared with known selective antagonists [1] | inhibition at 10 µM [1] | inhibition at 10 µM [2] | inhibition at 10 µM [3] | inhibition at 10 µM [4] | inhibition at 10 µM [6] | inhibition at 10 µM [7] | inhibition at 10 µM [8] | inhibition at 10 µM [9] | inhibition at 10 µM [11] | further results
CC1(c2ccccc2)C(=O)Nc2cc(Cl)cc(Cl)c2C1=O (centres unmarked) [Example 1, 5,7-dichloro-3-methyl-3-phenyl-1H-quinoline-2,4-dione] | 222 to 225 °C | 89 nM | almost same affinities as or better affinities than known selective antagonists | 91.1% | 1.6% | 12.6% | 0% | 16.4% | 43.2% | 6.4% | 18.3% | 11.4% | Antipsychotic effect [5]: mild antipsychotic effect; Antagonist activity compared with methiothepin [10]: weaker antagonist activity than methiothepin; Functional classification at 5-HT6 receptor [10]: 5-HT6 receptor antagonist
COc1cc2c(c(OC)c1)C(=O)C(C)(c1ccccc1)C(=O)N2 (centres unmarked) [Example 8, 5,7-dimethoxy-3-methyl-3-phenyl-1H-quinoline-2,4-dione] | – | 118 nM | – | 74% | 16% | 4.6% | 0.8% | 30.2% | 23.3% | 13.6% | 23.9% | 16.9% | Ki [12]: 1.4 nM
CC1(c2ccc(O)cc2)C(=O)Nc2cc(Cl)cc(Cl)c2C1=O (centres unmarked) [Example 13, 5,7-dichloro-3-(4-hydroxy-phenyl)-3-methyl-1H-quinoline-2,4-dione] | 222 to 223 °C | 20 nM | almost same affinities as or better affinities than known selective antagonists | 89.5% | 35.2% | 27.8% | 0% | 33.9% | 36.7% | 48.6% | 39.4% | 51% | Antipsychotic effect [5]: mild antipsychotic effect; Antagonist activity compared with methiothepin [10]: weaker antagonist activity than methiothepin; Functional classification at 5-HT6 receptor [10]: 5-HT6 receptor antagonist
CN1CCN(c2ccc3c(c2)NC(=O)C(C)(c2ccc([N+](=O)[O-])cc2)C3=O)CC1 (centres unmarked) [Example 51, 3-methyl-7-(4-methyl-piperazine-1-yl)-3-(4-nitro-phenyl)-1H-quinoline-2,4-dione] | 150 to 151 °C | 904 nM | – | 73.5% | 7.4% | 13.5% | 0% | 44.2% | 17.5% | 26.4% | 20.3% | 40.9% | –
COc1cc(Cl)c2c(c1)NC(=O)C(C)(c1ccc(Br)cc1)C2=O (centres unmarked) [Example 52, 3-(4-bromo-phenyl)-5-chloro-7-methoxy-3-methyl-1H-quinoline-2,4-dione] | 239 to 240 °C | 73 nM | almost same affinities as or better affinities than known selective antagonists | 89.6% | 9.3% | 7.4% | 0% | 7.8% | 8.8% | 30.6% | 20% | 41.5% | –
COc1ccc2c(c1)c(CCN(C)C)cn2S(=O)(=O)c1ccccc1 [MS-245] | – | – | – | – | – | – | – | – | – | – | – | – | pA2 [13]: 8.88
CNc1cc(NS(=O)(=O)c2ccc(N)cc2)nc(NC)n1 [Ro 04-6790] | – | – | – | – | – | – | – | – | – | – | – | – | anticonvulsant activity [14]: possess anticonvulsant activity; food intake [15]: decreased food intake; behavior of yawning, stretching, and chewing [16]: capable of inducing this same effect
COc1ccc(NS(=O)(=O)c2sc3ccc(Cl)cc3c2C)cc1N1CCNCC1 [SB-271046, reference compound] | – | – | – | – | 17.3% | 66.2% | 14.2% | 84.2% | – | 60.1% | 64.3% | 49.7% | anticonvulsant activity [14]: possess anticonvulsant activity; extracellular glutamate levels [17]: increased extracellular glutamate levels in frontal cortex and dorsal hippocampus by several fold; oral bioavailability ([18]; literature): > 80%; retention of a previously learned task [19]: significant improvement in retention of a previously learned task; Binding affinity (Inhibition rate % at 10 μM) 5HT7 ([7]; 10 μM): 34.9%
COc1ccc(S(=O)(=O)Nc2cc(Br)cc(F)c2Br)cc1N1CCNCC1 [SB-357134] | – | – | – | – | – | – | – | – | – | – | – | – | seizure threshold ([14]; rat maximal electroseizure threshold, oral administration): potent and dose-dependent increase in seizure threshold; clearance (in words) ([18]; in vivo): low clearance rate; retention of a previously learned task [19]: significant improvement in retention of a previously learned task
